For series [1] the following is noted: Wangler et al., Bioconjug Chem. 2010; cited from earlier work.
For series [2] the following is noted: ^177Lu-labeled compound, n = 6.
The test system of series [3] is LNCaP tumor xenograft-bearing CB17-SCID mice. Kind of series: Biodistribution in LNCaP tumor xenograft-bearing CB17-SCID mice.

Consider “SIFA-Asn(AcNH-p-Glc)-PEG-Tyr^3-octreotate”, for which the “log P(ow)” value in series [1] is 0.96.

In general, log D refers to the decadic logarithm of the distribution of all forms, ionised or not, between an organic phase and buffer at a given pH. Low readings indicate a more hydrophilic compound, high ones a more lipophilic compound. With `CC(C)(C)[Si](F)(c1ccc(C(=O)NC[C@@H](NC(=O)CN2CCN(CC(=O)[O-])CCN(CC(=O)[O-])CCN(CC(=O)[O-])CC2)C(=O)N[C@H](CCCCNC(=O)CCC(=O)NCCC[C@@H](NC(=O)CC[C@H](NC(=O)O[C@@H](CCC(=O)O)C(=O)O)C(=O)O)C(=O)O)C(=O)O)cc1)C(C)(C)C.[177Lu+3]` [[^177Lu]Lu-3, [^177Lu]Lu-Carbamate I], in series [2], the log distribution coefficient (log D) is −3.40±0.45. In series [3] (1 h p.i.), the “Biodistribution Adrenals” value came to 1.46 ± 0.70 % ID/g, the “Biodistribution Blood” value is on record as 0.97 ± 0.18 % ID/g, the “Biodistribution Bone” value was determined as 0.18 ± 0.02 % ID/g and the “Biodistribution Heart” value was 0.36 ± 0.04 % ID/g. In series [3] (1 h p.i.), the “Biodistribution Intestine” value came to 0.36 ± 0.17 % ID/g, the “Biodistribution Kidneys” value was 61.8±25.9 % ID/g, the “Biodistribution Liver” value worked out at 0.87 ± 0.28 % ID/g and the “Biodistribution Lung” value is on record as 2.88 ± 2.96 % ID/g. In series [3] (1 h p.i.), the “Biodistribution Muscle” value was found to be 0.13 ± 0.04 % ID/g, the “Biodistribution Pancreas” value came to 0.25 ± 0.06 % ID/g, the “Biodistribution Parotid gland” value amounted to 0.62 ± 0.20 % ID/g and the “Biodistribution Spleen” value came to 2.51 ± 0.95 % ID/g. For the same molecule, in series [3] (1 h p.i.), the “Biodistribution Stomach” value was found to be 0.30 ± 0.09 % ID/g, the “Biodistribution Submandibular gland” value is listed as 0.37 ± 0.08 % ID/g, the “Biodistribution Tumor” value is reported as 5.31±0.94 % ID/g and the “Ratio Tumor-to-blood” value was determined as 5.57 ± 1.18. Also, in series [3] (1 h p.i.), the “Ratio Tumor-to-kidney” value is 0.09 ± 0.03, the “Ratio Tumor-to-liver” value is on record as 6.61 ± 2.19, the “Ratio Tumor-to-muscle” value is given as 44.1 ± 9.0 and the “Ratio Tumor-to-parotid gland” value was determined as 9.09 ± 3.13. The “Ratio Tumor-to-submandibular gland” value in series [3] (1 h p.i.) came out at 14.7 ± 3.5. In addition, the “tumor-to-submandibularis and -parotidea ratios at 1 h p.i. compared to respective values at 24 h p.i.” value in series [3] (1 h p.i. vs 24 h p.i.) is “two-fold lower”. Also, in series [3] (24 h p.i.), the “Biodistribution Adrenals” value was determined as 0.04 ± 0.01 % ID/g, the “Biodistribution Blood” value was determined as 0.00 ± 0.00 % ID/g, the “Biodistribution Bone” value was 0.02 ± 0.01 % ID/g and the “Biodistribution Heart” value is 0.02 ± 0.01 % ID/g. In series [3] (24 h p.i.), the “Biodistribution Intestine” value is reported as 0.12 ± 0.06 % ID/g, the “Biodistribution Kidneys” value turned out to be 0.31 ± 0.05 % ID/g, the “Biodistribution Liver” value stood at 0.13 ± 0.05 % ID/g and the “Biodistribution Lung” value turned out to be 0.03 ± 0.01 % ID/g. For the same molecule, in series [3] (24 h p.i.), the “Biodistribution Muscle” value was 0.01 ± 0.01 % ID/g, the “Biodistribution Pancreas” value is 0.02 ± 0.01 % ID/g, the “Biodistribution Parotid gland” value was found to be 0.04 ± 0.02 % ID/g and the “Biodistribution Spleen” value worked out at 0.09 ± 0.01 % ID/g. In series [3] (24 h p.i.), the “Biodistribution Stomach” value was determined as 0.06 ± 0.04 % ID/g, the “Biodistribution Submandibular gland” value turned out to be 0.03 ± 0.01 % ID/g, the “Biodistribution Tumor” value was determined as 1.20 ± 0.55 % ID/g and the “Ratio Tumor-to-blood” value is 947 ± 652. In series [3] (24 h p.i.), the “Ratio Tumor-to-kidney” value was determined as 3.80 ± 1.36, the “Ratio Tumor-to-liver” value is 8.94 ± 2.94, the “Ratio Tumor-to-muscle” value was 127 ± 92 and the “Ratio Tumor-to-parotid gland” value came to 31.8 ± 9.3. In addition, the “Ratio Tumor-to-submandibular gland” value in series [3] (24 h p.i.) is reported as 34.5 ± 9.2.

The values are drawn from US20250375544A1, “DUAL MODE RADIOTRACER AND -THERAPEUTICS” (TECHNISCHE UNIVERSITÄT MÜNCHEN, priority 2021, published 2025).
